Reference: PubChem BioAssay (NCI)
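1) Cells in 96-well plates. 2) Compound, 48 h, 5 concentrations. 3) Linear interpolation between surrounding doses. 4) Unreached endpoint = highest concentration. Here, GI50 denotes the concentration required for 50% inhibition of growth. TGI: total growth inhibition.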

Key:
Assay in all cases: NCI anticancer screen, dose series, 48 h
EKVX NSCLC = system: EKVX NSCLC
NCI/ADR-RES ovarian = system: NCI/ADR-RES ovarian
IGROV1 ovarian = system: IGROV1 ovarian
OVCAR-5 ovarian = system: OVCAR-5 ovarian
DU-145 prostate = system: DU-145 prostate
A549 NSCLC = system: A549 NSCLC
U251 CNS = system: U251 CNS
MCF7 breast = system: MCF7 breast
SR leukemia = system: SR leukemia
SK-MEL-5 melanoma = system: SK-MEL-5 melanoma
NCI-H460 lung = system: NCI-H460 lung
BT-549 breast = system: BT-549 breast

| SMILES | TGI (EKVX NSCLC) [µM] | TGI (NCI/ADR-RES ovarian) [µM] | TGI (IGROV1 ovarian) [µM] | TGI (OVCAR-5 ovarian) [µM] | TGI (DU-145 prostate) [µM] | TGI (A549 NSCLC) [µM] | TGI (U251 CNS) [µM] | TGI (MCF7 breast) [µM] | TGI (SR leukemia) [µM] | TGI (SK-MEL-5 melanoma) [µM] | TGI (NCI-H460 lung) [µM] | TGI (BT-549 breast) [µM] | GI50 (DU-145 prostate) [µM] | GI50 (BT-549 breast) [µM] | GI50 (SK-MEL-5 melanoma) [µM] | GI50 (MCF7 breast) [µM] |
| --- | --- | --- | --- | --- | --- | --- | --- | --- | --- | --- | --- | --- | --- | --- | --- | --- |
| O=C(CC(C(=O)c1ccco1)c1ccco1)c1ccco1 (configuration not stated) | > 100 | > 100 | > 100 | > 100 | > 100 | > 100 | > 100 | > 100 | > 100 | > 100 | > 100 |  |  |  |  |  |
| O=[N+]([O-])c1cccc2c(N=Nc3ccc4ccccc4c3O)c(O)cc(S(=O)(=O)O)c12 | > 100 | > 100 | > 100 | > 100 |  | > 100 | > 100 |  | > 100 | > 100 |  | > 100 |  |  |  |  |
| O=C1c2cccc(O)c2C(=O)c2c(O)cc(CO)cc21 |  |  |  | > 100 |  | > 100 | > 100 |  | > 100 | 30.7 | > 100 |  |  |  |  |  |
| CC(C)N1CN(c2ccccc2)C2(CCN(CCCC(=O)c3ccc(F)cc3)CC2)C1=O | > 100 | 31.1 | 17.5 | 30.9 | 24.2 | > 100 | > 100 | 13.1 | 46.1 | 6.53 | 54.2 |  |  |  |  |  |
| CN1CCN(C2=C(Cl)C3(OCCS3)C(F)(F)C2(F)F)CC1 (configuration not stated) | > 100 | > 100 | > 100 | > 100 | > 100 | > 100 | > 100 | > 100 | > 100 | 61.7 |  |  |  |  |  |  |
| CC(C)C(N)C(=O)NC(CCC(=O)NCCCCC(N)C(=O)NCCCNc1ccc([N+](=O)[O-])c2[nH]c3ccccc3c(=O)c12)C(N)=O (configuration not stated) | > 100 | > 100 |  | > 100 | > 100 | > 100 | > 100 |  |  | > 100 | > 100 | 29.4 |  |  |  |  |
| O=C1OC(c2ccccc2)N(C(=O)c2ccccc2)C1Cc1ccc(OCc2ccccc2)cc1 (configuration not stated) | > 100 | > 100 | > 100 | > 100 | > 100 | > 100 | > 100 | 62.3 | > 100 | > 100 | > 100 |  |  |  |  |  |
| CC(C)C1=C(O)C2=C(C(=O)C1=O)C1(C)CCCC(C)(C)C1C(O)C2OC=O (configuration not stated) | 21.7 |  | 22.2 | 30.9 | 19.1 | 35.8 | 17.1 | 27.7 | 6.52 | 18.9 | 12.7 | 21.5 |  |  |  |  |
| CC(=O)Oc1c(C)c(C)c2c(c1C)CCC(C)(CC(=O)OCCCCCCCCCCC[P+](c1ccccc1)(c1ccccc1)c1ccccc1)O2 (configuration not stated) |  |  |  |  | 1.34 |  |  |  |  | 0.359 |  | 0.99 | 0.384 | 0.314 | 0.191 |  |
| COc1ccc(N2C(=O)C3c4[nH]c5ccccc5c4C4CCCCCCCCCC4C3C2=O)cc1 (configuration not stated) | > 10 | > 10 | > 10 | > 10 | > 10 | > 10 | > 10 | > 10 | > 10 | > 10 | > 10 |  |  |  |  |  |
| COc1cc([N+](=O)[O-])c(OC)c2c(Nc3ccc(S(=O)(=O)O)c4cc(S(=O)(=O)O)cc(S(=O)(=O)O)c34)cc(C)nc12 | > 100 | > 100 | > 100 | > 100 | > 100 | > 100 | > 100 | > 100 |  | > 100 |  | > 100 |  |  |  |  |
| COP(=O)(OC)C(Nc1ccc(Cc2ccc(NC(c3ccco3)P(=O)(OC)OC)cc2)cc1)c1ccco1 (configuration not stated) | 94.4 | > 100 | > 100 | > 100 | > 100 | > 100 | 21.4 | > 100 |  | > 100 | > 100 | 60 |  |  |  |  |
| O=[N+]([O-])c1ccc2c(c1)c(N=NC(=S)Nc1ccc(Cl)cc1)c(O)n2CN1CCOCC1 |  | 5.9 | 18.1 |  | 22.2 | 20.8 | 20.1 | 18.8 | 8.44 | 17.7 | 20.3 |  |  |  |  |  |
| COc1ccc(C2c3cc4c(cc3OC(NCCO)C2C)OCO4)cc1 (configuration not stated) | 92.5 |  | > 100 | > 100 | > 100 | 68.8 | 54.9 | 66.7 | 39.9 | 44.7 | 63.6 | 59 |  |  |  |  |
| O=C(O)/C=C\C(=O)Nc1ccc(S(=O)(=O)c2ccc(NC(=O)/C=C\C(=O)O)cc2)cc1 | > 100 |  | > 100 | > 100 |  | > 100 | > 100 |  | > 100 | > 100 |  |  |  |  |  |  |
| Cc1cc(O)c(-c2cc(O)c(C)cc2O)cc1O | 28.7 | 97.1 | 25.9 | 32.9 | 28.5 | 49.5 | 30.3 | 47.6 |  | 28.4 | 39.8 | 26.7 |  |  |  |  |

| SMILES | TGI (EKVX NSCLC) [µM] | TGI (NCI/ADR-RES ovarian) [µM] | TGI (IGROV1 ovarian) [µM] | TGI (OVCAR-5 ovarian) [µM] | TGI (DU-145 prostate) [µM] | TGI (A549 NSCLC) [µM] | TGI (U251 CNS) [µM] | TGI (MCF7 breast) [µM] | TGI (SR leukemia) [µM] | TGI (SK-MEL-5 melanoma) [µM] | TGI (NCI-H460 lung) [µM] | TGI (BT-549 breast) [µM] | GI50 (DU-145 prostate) [µM] | GI50 (BT-549 breast) [µM] | GI50 (SK-MEL-5 melanoma) [µM] | GI50 (MCF7 breast) [µM] |
| --- | --- | --- | --- | --- | --- | --- | --- | --- | --- | --- | --- | --- | --- | --- | --- | --- |
| O=C1C=CC(=O)C(CNc2ccc(C(=O)OCc3ccccc3)cc2)=C1 | 23.7 | 23.5 | 12.6 | 29.5 | 25.1 | 32.1 | 19.9 | 18.5 |  | 11.6 | 38.9 | 9.31 |  |  |  |  |
| CON(C)C(=O)C1CCCO1 (configuration not stated) | > 100 | > 100 | > 100 | > 100 | > 100 | > 100 | > 100 | > 100 | > 100 | > 100 | > 100 |  |  |  |  |  |
| CCOC(=O)C1=CC(C)(C(=O)OCC)Nc2c(nc(N)[nH]c2=O)N1 (configuration not stated) | > 10 | > 10 | > 10 | > 10 | > 10 | > 10 | > 10 | > 10 |  | > 10 | > 10 | > 10 |  |  |  |  |
| c1ccc(C2CC(=NC3CCCCC3)Nc3ccccc3N2)cc1 (configuration not stated) | > 100 | > 100 | > 100 | > 100 | > 100 | > 100 | > 100 |  |  | 43.7 | > 100 | > 100 |  |  |  |  |
| CC1=NNC(=O)C1C1CC(c2c[nH]c3ccccc23)=NN=C1Cl (configuration not stated) | > 100 | > 100 | > 100 | > 100 | > 100 | > 100 | > 100 |  |  | > 100 | > 100 | > 100 |  |  |  |  |
| C[C@H]1OC(=O)[C@@H]2N=NN(Cc3ccccc3)[C@H]12 |  | > 100 |  | > 100 | > 100 | > 100 | > 100 | > 100 | > 100 | > 100 | > 100 |  |  |  |  |  |
| CN(C)c1cccc2c1C(=O)C=CC21c2ccc(N(C)C)c3c(N(C)C)ccc(c23)C(c2ccccc2)C1c1ccccc1 (configuration not stated) | 54.8 | 58.9 | 29.3 | 81.7 | > 100 | 71.7 | 25.8 | 36.9 | 55.1 | 27.5 | 61.5 |  |  |  |  |  |
| O=C1C(C(O)(C(F)(F)F)C(F)(F)F)CCC1C(O)(C(F)(F)F)C(F)(F)F (configuration not stated) | > 100 | 32.6 | > 86 | > 100 | > 100 | > 65.4 | 99.5 | 2.26 | 43.8 | 16.2 | > 100 |  |  |  |  |  |
| O=C(NN1C(=O)CSC1c1cccc(F)c1)c1ccncc1 (configuration not stated) | > 100 |  | > 100 | > 100 |  | > 100 | > 100 |  |  | > 100 |  |  |  |  |  |  |
| COc1cc(C2c3cc4c(cc3[C@@H](Nc3ccc5c(c3)OCO5)C3COC(=O)[C@H]23)OCO4)cc(OC)c1O (some centres not stated) | 16.3 | 41.6 | 35 | > 59.4 |  | 2.56 | 1.74 | 10.1 |  | 2.64 | 1.57 |  |  |  |  |  |
| Nc1ccc(-c2nn3c(COc4ccc(Cl)cc4)nnc3s2)cc1 | > 100 | > 100 | > 100 | > 100 | > 100 | > 100 | > 100 | > 100 |  | > 100 | > 100 |  |  |  |  | 41 |
| COc1cc(/C=C2\CCC(C)/C(=C\c3cc(OC)c(OC)c(OC)c3)C2=O)cc(OC)c1OC (configuration not stated) | 16.3 |  | 6.58 | 14.2 | > 100 | > 100 | > 100 | > 100 |  | 5.7 |  | 3.53 |  |  |  |  |
| COC(=O)[C@H](Cc1ccccc1)NC(=O)N(CCC#N)CCN(C(=O)N[C@@H](Cc1ccccc1)C(=O)OC)c1ccccc1 | 73.2 | > 100 | 42.9 | > 100 | 74.5 | > 100 |  | > 100 |  | 46.2 |  | > 100 |  |  |  |  |
| CSc1nc2c(ncn2C2OC(CO)C(O)C(O)C2O)c(=O)[nH]1 (configuration not stated) | > 100 | > 100 | > 100 | > 100 |  | > 100 | > 100 | > 100 |  | > 100 | > 100 |  |  |  |  |  |
| CC1(C)CC(C#Cc2ccccc2)CC(C)(C)N1O | > 100 | 73.8 | > 100 | 44.2 | 41.9 | 75.5 | 64.6 | 36.3 | > 100 | 30.7 | 44.8 |  |  |  |  |  |
